# According to patent US20230085307A1, “PYRIDAZINONE COMPOUND AND HERBICIDE” (NISSAN CHEMICAL CORPORATION, priority 2019, published 2023):
# How the values were obtained:
# chickweed [1] = test: Test Example 5: herbicidal effect by foliage application, plastic box (Table 20, symbol P); assay type: in vivo, common chickweed (Stellaria media); conditions: amount of applied herbicide 320 g/ha; foliage application after 14-day growth; evaluated three weeks after application
# How it was run: (§1)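 Post-emergence foliar test in sterilized diluvial soil. Compound applied as water-diluted emulsion at a predetermined rate to 14-day-old plants; evaluation at three weeks.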
# barnyard grass [2] = test: Test Example 3: herbicidal effect by foliage application, Wagner pot (Table 18, symbol H); assay type: in vivo, barnyard grass (Echinochloa crus-galli); conditions: 320 g/ha
# How it was run: (§2)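 Plants were sown in alluvial soil held under 0.1–0.5 cm standing water and grown 14 days in a greenhouse at 25–30 °C. An emulsifiable formulation, water-diluted to the set dose, was then sprayed onto the foliage, and effects were scored three weeks later using previously defined criteria.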
# redroot pigweed [3] = test: Test Example 5: herbicidal effect by foliage application, plastic box (Table 20, symbol N); assay type: in vivo, redroot pigweed (Amaranthus retroflexus); conditions: amount of applied herbicide 320 g/ha; foliage application after 14-day growth; evaluated three weeks after application
# How it was run: as §1
# Chinese sprangletop = test: Test Example 3: herbicidal effect by foliage application, Wagner pot (Table 18, symbol D); assay type: in vivo, chinese sprangletop (Leptochloa chinensis); conditions: 320 g/ha
# How it was run: as §2
# Italian ryegrass [4] = test: Test Example 4: herbicidal effect by soil treatment (Table 19, symbol K); assay type: in vivo, Italian ryegrass (Lolium multiflorum); conditions: amount of applied herbicide 320 g/ha
# How it was run: (§3)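 Scoring uses the grading scale of an earlier test, three weeks post-application. Treatment consists of spraying a diluted emulsion formulation across the surface of sterilized diluvial soil in which seeds are buried near 1.5 cm deep; boxes are kept in a greenhouse between 25° C. and 30° C.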
# southern crabgrass [5] = test: Test Example 4: herbicidal effect by soil treatment (Table 19, symbol F); assay type: in vivo, southern crabgrass (Digitaria ciliaris); conditions: amount of applied herbicide 320 g/ha
# How it was run: as §3
# wild oat [6] = test: Test Example 5: herbicidal effect by foliage application, plastic box (Table 20, symbol I); assay type: in vivo, wild oat (Avena fatua); conditions: amount of applied herbicide 320 g/ha; foliage application after 14-day growth; evaluated three weeks after application
# How it was run: as §1
# wild oat [7] = test: Test Example 4: herbicidal effect by soil treatment (Table 19, symbol I); assay type: in vivo, wild oat (Avena fatua); conditions: amount of applied herbicide 320 g/ha
# How it was run: as §3
# lambsquarters [8] = test: Test Example 5: herbicidal effect by foliage application, plastic box (Table 20, symbol O); assay type: in vivo, lambsquarters (Chenopodium album); conditions: amount of applied herbicide 320 g/ha; foliage application after 14-day growth; evaluated three weeks after application
# How it was run: as §1
# persian speedwell [9] = test: Test Example 4: herbicidal effect by soil treatment (Table 19, symbol R); assay type: in vivo, Persian speedwell (Veronica persica); conditions: amount of applied herbicide 320 g/ha
# How it was run: as §3
# green foxtail [10] = test: Test Example 5: herbicidal effect by foliage application, plastic box (Table 20, symbol G); assay type: in vivo, green foxtail (Setaria viridis); conditions: amount of applied herbicide 320 g/ha; foliage application after 14-day growth; evaluated three weeks after application
# How it was run: as §1
# lambsquarters [11] = test: Test Example 4: herbicidal effect by soil treatment (Table 19, symbol O); assay type: in vivo, lambsquarters (Chenopodium album); conditions: amount of applied herbicide 320 g/ha
# How it was run: as §3
# barnyard grass [12] = test: Test Example 4: herbicidal effect by soil treatment (Table 19, symbol H); assay type: in vivo, barnyard grass (Echinochloa crus-galli); conditions: amount of applied herbicide 320 g/ha
# How it was run: as §3
# blackgrass [13] = test: Test Example 4: herbicidal effect by soil treatment (Table 19, symbol J); assay type: in vivo, blackgrass (Alopecurus myosuroides); conditions: amount of applied herbicide 320 g/ha
# How it was run: as §3
# rice flat sedge = test: Test Example 3: herbicidal effect by foliage application, Wagner pot (Table 18, symbol E); assay type: in vivo, rice flat sedge (Cyperus iria); conditions: 320 g/ha
# How it was run: as §2
# green foxtail [14] = test: Test Example 4: herbicidal effect by soil treatment (Table 19, symbol G); assay type: in vivo, green foxtail (Setaria viridis); conditions: amount of applied herbicide 320 g/ha
# How it was run: as §3
# barnyard grass [15] = test: Test Example 5: herbicidal effect by foliage application, plastic box (Table 20, symbol H); assay type: in vivo, barnyard grass (Echinochloa crus-galli); conditions: amount of applied herbicide 320 g/ha; foliage application after 14-day growth; evaluated three weeks after application
# How it was run: as §1
# velvetleaf [16] = test: Test Example 5: herbicidal effect by foliage application, plastic box (Table 20, symbol M); assay type: in vivo, velvetleaf (Abutilon theophrasti); conditions: amount of applied herbicide 320 g/ha; foliage application after 14-day growth; evaluated three weeks after application
# How it was run: as §1
# southern crabgrass [17] = test: Test Example 5: herbicidal effect by foliage application, plastic box (Table 20, symbol F); assay type: in vivo, southern crabgrass (Digitaria ciliaris); conditions: amount of applied herbicide 320 g/ha; foliage application after 14-day growth; evaluated three weeks after application
# How it was run: as §1
# windgrass [18] = test: Test Example 5: herbicidal effect by foliage application, plastic box (Table 20, symbol L); assay type: in vivo, windgrass (Apera spica-venti); conditions: amount of applied herbicide 320 g/ha; foliage application after 14-day growth; evaluated three weeks after application
# How it was run: as §1
# chickweed [19] = test: Test Example 4: herbicidal effect by soil treatment (Table 19, symbol P); assay type: in vivo, common chickweed (Stellaria media); conditions: amount of applied herbicide 320 g/ha
# How it was run: as §3
# redroot pigweed [20] = test: Test Example 4: herbicidal effect by soil treatment (Table 19, symbol N); assay type: in vivo, redroot pigweed (Amaranthus retroflexus); conditions: amount of applied herbicide 320 g/ha
# How it was run: as §3
# velvetleaf [21] = test: Test Example 4: herbicidal effect by soil treatment (Table 19, symbol M); assay type: in vivo, velvetleaf (Abutilon theophrasti); conditions: amount of applied herbicide 320 g/ha
# How it was run: as §3
# persian speedwell [22] = test: Test Example 5: herbicidal effect by foliage application, plastic box (Table 20, symbol R); assay type: in vivo, Persian speedwell (Veronica persica); conditions: amount of applied herbicide 320 g/ha; foliage application after 14-day growth; evaluated three weeks after application
# How it was run: as §1
# windgrass [23] = test: Test Example 4: herbicidal effect by soil treatment (Table 19, symbol L); assay type: in vivo, windgrass (Apera spica-venti); conditions: amount of applied herbicide 320 g/ha
# How it was run: as §3
# Italian ryegrass [24] = test: Test Example 5: herbicidal effect by foliage application, plastic box (Table 20, symbol K); assay type: in vivo, Italian ryegrass (Lolium multiflorum); conditions: amount of applied herbicide 320 g/ha; foliage application after 14-day growth; evaluated three weeks after application
# How it was run: as §1
# blackgrass [25] = test: Test Example 5: herbicidal effect by foliage application, plastic box (Table 20, symbol J); assay type: in vivo, blackgrass (Alopecurus myosuroides); conditions: amount of applied herbicide 320 g/ha; foliage application after 14-day growth; evaluated three weeks after application
# How it was run: as §1
structure (smiles),measurement,setting,value
Cc1nn(C)c(=O)c(-c2c(-c3ccc(OC(F)(F)F)cc3)sc3c(Cl)cccc23)c1O [4-078],"Herbicidal effect by foliage application, P: chickweed",chickweed [1],5 (Herbicidal rate of 90% or more (almost completely withered))
same,herbicidal effect on barnyard grass (H),barnyard grass [2],3 (Herbicidal rate of 40% or more and less than 70%)
same,"Herbicidal effect by foliage application, N: redroot pigweed",redroot pigweed [3],5 (Herbicidal rate of 90% or more (almost completely withered))
same,herbicidal effect on Chinese sprangletop (D),Chinese sprangletop,2 (Herbicidal rate of 20% or more and less than 40%)
same,"Herbicidal effect by soil treatment, K: Italian ryegrass",Italian ryegrass [4],0 (Herbicidal rate of 5% or less (almost no effect))
same,"Herbicidal effect by soil treatment, F: southern crabgrass",southern crabgrass [5],0 (Herbicidal rate of 5% or less (almost no effect))
same,"Herbicidal effect by foliage application, I: wild oat",wild oat [6],0 (Herbicidal rate of 5% or less (almost no effect))
same,"Herbicidal effect by soil treatment, I: wild oat",wild oat [7],0 (Herbicidal rate of 5% or less (almost no effect))
same,"Herbicidal effect by foliage application, O: lambsquarters",lambsquarters [8],3 (Herbicidal rate of 40% or more and less than 70%)
same,"Herbicidal effect by soil treatment, R: persian speedwell",persian speedwell [9],4 (Herbicidal rate of 70% or more and less than 90%)
same,"Herbicidal effect by foliage application, G: green foxtail",green foxtail [10],0 (Herbicidal rate of 5% or less (almost no effect))
same,"Herbicidal effect by soil treatment, O: lambsquarters",lambsquarters [11],0 (Herbicidal rate of 5% or less (almost no effect))
same,"Herbicidal effect by soil treatment, H: barnyard grass",barnyard grass [12],0 (Herbicidal rate of 5% or less (almost no effect))
same,"Herbicidal effect by soil treatment, J: blackgrass",blackgrass [13],0 (Herbicidal rate of 5% or less (almost no effect))
same,herbicidal effect on rice flat sedge (E),rice flat sedge,3 (Herbicidal rate of 40% or more and less than 70%)
same,"Herbicidal effect by soil treatment, G: green foxtail",green foxtail [14],0 (Herbicidal rate of 5% or less (almost no effect))
same,"Herbicidal effect by foliage application, H: barnyard grass",barnyard grass [15],0 (Herbicidal rate of 5% or less (almost no effect))
same,"Herbicidal effect by foliage application, M: velvetleaf",velvetleaf [16],3 (Herbicidal rate of 40% or more and less than 70%)
same,"Herbicidal effect by foliage application, F: southern crabgrass",southern crabgrass [17],0 (Herbicidal rate of 5% or less (almost no effect))
same,"Herbicidal effect by foliage application, L: windgrass",windgrass [18],5 (Herbicidal rate of 90% or more (almost completely withered))
same,"Herbicidal effect by soil treatment, P: chickweed",chickweed [19],3 (Herbicidal rate of 40% or more and less than 70%)
same,"Herbicidal effect by soil treatment, N: redroot pigweed",redroot pigweed [20],2 (Herbicidal rate of 20% or more and less than 40%)
same,"Herbicidal effect by soil treatment, M: velvetleaf",velvetleaf [21],0 (Herbicidal rate of 5% or less (almost no effect))
same,"Herbicidal effect by foliage application, R: persian speedwell",persian speedwell [22],5 (Herbicidal rate of 90% or more (almost completely withered))
same,"Herbicidal effect by soil treatment, L: windgrass",windgrass [23],0 (Herbicidal rate of 5% or less (almost no effect))
same,"Herbicidal effect by foliage application, K: Italian ryegrass",Italian ryegrass [24],0 (Herbicidal rate of 5% or less (almost no effect))
same,"Herbicidal effect by foliage application, J: blackgrass",blackgrass [25],0 (Herbicidal rate of 5% or less (almost no effect))
Cc1nn(C)c(=O)c(-c2c(-c3ccc(SC(C)C)cc3)sc3c(Cl)cccc23)c1O [4-096],"Herbicidal effect by foliage application, P: chickweed",chickweed [1],5 (Herbicidal rate of 90% or more (almost completely withered))
same,herbicidal effect on barnyard grass (H),barnyard grass [2],5 (Herbicidal rate of 90% or more (almost completely withered))
same,"Herbicidal effect by foliage application, N: redroot pigweed",redroot pigweed [3],5 (Herbicidal rate of 90% or more (almost completely withered))
same,herbicidal effect on Chinese sprangletop (D),Chinese sprangletop,3 (Herbicidal rate of 40% or more and less than 70%)
same,"Herbicidal effect by soil treatment, K: Italian ryegrass",Italian ryegrass [4],0 (Herbicidal rate of 5% or less (almost no effect))
same,"Herbicidal effect by soil treatment, F: southern crabgrass",southern crabgrass [5],0 (Herbicidal rate of 5% or less (almost no effect))
same,"Herbicidal effect by foliage application, I: wild oat",wild oat [6],2 (Herbicidal rate of 20% or more and less than 40%)
same,"Herbicidal effect by soil treatment, I: wild oat",wild oat [7],0 (Herbicidal rate of 5% or less (almost no effect))
same,"Herbicidal effect by foliage application, O: lambsquarters",lambsquarters [8],4 (Herbicidal rate of 70% or more and less than 90%)
same,"Herbicidal effect by soil treatment, R: persian speedwell",persian speedwell [9],4 (Herbicidal rate of 70% or more and less than 90%)
same,"Herbicidal effect by foliage application, G: green foxtail",green foxtail [10],3 (Herbicidal rate of 40% or more and less than 70%)
same,"Herbicidal effect by soil treatment, O: lambsquarters",lambsquarters [11],3 (Herbicidal rate of 40% or more and less than 70%)
same,"Herbicidal effect by soil treatment, H: barnyard grass",barnyard grass [12],0 (Herbicidal rate of 5% or less (almost no effect))
same,"Herbicidal effect by soil treatment, J: blackgrass",blackgrass [13],0 (Herbicidal rate of 5% or less (almost no effect))
same,herbicidal effect on rice flat sedge (E),rice flat sedge,3 (Herbicidal rate of 40% or more and less than 70%)
same,"Herbicidal effect by soil treatment, G: green foxtail",green foxtail [14],0 (Herbicidal rate of 5% or less (almost no effect))
same,"Herbicidal effect by foliage application, H: barnyard grass",barnyard grass [15],4 (Herbicidal rate of 70% or more and less than 90%)
same,"Herbicidal effect by foliage application, M: velvetleaf",velvetleaf [16],3 (Herbicidal rate of 40% or more and less than 70%)
same,"Herbicidal effect by foliage application, F: southern crabgrass",southern crabgrass [17],0 (Herbicidal rate of 5% or less (almost no effect))
same,"Herbicidal effect by foliage application, L: windgrass",windgrass [18],3 (Herbicidal rate of 40% or more and less than 70%)
same,"Herbicidal effect by soil treatment, P: chickweed",chickweed [19],3 (Herbicidal rate of 40% or more and less than 70%)
same,"Herbicidal effect by soil treatment, N: redroot pigweed",redroot pigweed [20],5 (Herbicidal rate of 90% or more (almost completely withered))
same,"Herbicidal effect by soil treatment, M: velvetleaf",velvetleaf [21],0 (Herbicidal rate of 5% or less (almost no effect))
same,"Herbicidal effect by foliage application, R: persian speedwell",persian speedwell [22],5 (Herbicidal rate of 90% or more (almost completely withered))
same,"Herbicidal effect by soil treatment, L: windgrass",windgrass [23],0 (Herbicidal rate of 5% or less (almost no effect))
same,"Herbicidal effect by foliage application, K: Italian ryegrass",Italian ryegrass [24],4 (Herbicidal rate of 70% or more and less than 90%)
same,"Herbicidal effect by foliage application, J: blackgrass",blackgrass [25],3 (Herbicidal rate of 40% or more and less than 70%)
